Reference: article PMC5075052, “Modulation of the Substitution Pattern of 5-Aryl-2-Aminoimidazoles Allows Fine-Tuning of Their Antibiofilm Activity Spectrum and Toxicity” (Antimicrobial Agents and Chemotherapy, 2016)
Where two headings read alike, the source gives them in different places.

Experiments:
P. aeruginosa PA14 = experiment: Monospecies bacterial biofilm inhibition, static peg assay; type: cell-based, Pseudomonas aeruginosa; settings: Pseudomonas aeruginosa
Experimental: (§1) A static peg assay, described previously ([27], [74]), was used for bacterial biofilm formation. The Calgary biofilm device consists of a platform carrying 96 polystyrene pegs (Nunc no. 445497) that fits as a microtiter plate lid, with 1 peg hanging into each microtiter plate well (Nunc no. 269789). Twofold serial dilutions of the compounds (dissolved in 100% dimethyl sulfoxide [DMSO] or ethanol) in 100 μl liquid broth (TSB diluted 1/20) per well were prepared in the microtiter plate in duplicate or triplicate with a maximum concentration of 1,600 μM and a minimum concentration of 0.8 μM. Subsequently, an overnight culture of S. Typhimurium ATCC 14028, P. aeruginosa PA14, E. coli TG1, S. epidermidis, S. aureus SH1000, or S. aureus ATCC 6538 (all grown in LB) was diluted 1:100 into TSB diluted 1/20 (or TSB for S. epidermidis, S. aureus SH1000, and S. aureus ATCC 6538), whereas overnight cultures of S. liquefaciens MG44 and B. cepacia LMG1222T were diluted 1:50 into TSB diluted 1/20. P. gingivalis ATCC 33277 cultures were diluted in TSB diluted 1/20 to have a final concentration of 1 × 10^8 cells/ml. Next, 100 μl was added to each well of the microtiter plate, resulting in a total volume of 200 μl medium per well (final concentration range of compounds, 800 μM [2% DMSO or ethanol] to 0.4 μM [0.001% DMSO or ethanol]). In the next step, the pegged lid was placed on the microtiter plate and the plate was incubated for 24 h or 48 h at 25°C or 37°C without shaking. At 37°C, the plates were placed in a sealed container with wet towels on the bottom to prevent evaporation of the growth medium. Biofilms of P. gingivalis ATCC 33277 were grown anaerobically at 37°C for 72 h. During this incubation period, biofilms were formed on the surface of the pegs. After incubation, the optical density at 600 nm (OD600) for the planktonic cells in the microtiter plate was measured using a Synergy MX multimode reader (BioTek, Winooski, VT). This gives a first indication of the effect of the compounds on planktonic growth. For quantification of biofilm formation, the pegs were washed once in 200 μl PBS. The remaining attached bacteria were stained for 30 min with 200 μl 0.1% (wt/vol) crystal violet in an isopropanol-methanol-PBS solution (1:1:18, vol/vol). Excess stain was rinsed off by placing the pegs in a 96-well plate filled with 200 μl distilled water per well. After air drying of the pegs (30 min), the dye bound to the adherent biofilm was extracted with 30% glacial acetic acid (200 μl per well of a 96-well plate). The optical density at 570 nm (OD570) of each well was measured using a Synergy MX multimode reader (BioTek, Winooski, VT). The concentration of each compound needed to inhibit biofilm formation by 50% (BIC50) and the concentration of each compound needed to inhibit planktonic growth by 50% (IC50) were determined from the concentration gradient by using nonlinear curve fitting (GraphPad Prism software, version 5; GraphPad Software, Inc., La Jolla, CA). In the same assay, the effect on planktonic growth was evaluated. The activity was considered biofilm specific if the BIC50 was at least two times lower than the IC50. Data represent the means from at least 3 technical repeats with the corresponding 95% confidence intervals (provided in the supplemental material).

E. coli TG1 = experiment: as above; type: cell-based, Escherichia coli; settings: Escherichia coli
Experimental: as §1

S. aureus ATCC 6538 = experiment: Monospecies bacterial biofilm inhibition, static peg assay (Calgary device, crystal violet; planktonic OD600); type: cell-based, Staphylococcus aureus
Experimental: as §1

[1] = test system: S. aureus ATCC 6538 + S. epidermidis; experiment: Mixed-species S. aureus-S. epidermidis biofilm assay (peg, crystal violet); type: cell-based, Staphylococcus aureus + Staphylococcus epidermidis; settings: 37°C
Experimental: Overnight cultures of S. aureus ATCC 6538 and S. epidermidis were grown in LB medium and were diluted 1/200 in the same vial of TSB to form a mixed-culture suspension. Next, 2-fold serial dilutions of the compounds (dissolved in 100% DMSO or ethanol) in 100 μl TSB medium per well were prepared in the microtiter plate (Nunc no. 269789) in duplicate or triplicate with a maximum concentration of 1,600 μM and a minimum concentration of 0.8 μM. One hundred microliters of the mixed-culture suspension was added to each well of the microtiter plate, resulting in a total volume of 200 μl medium per well (final concentration range of compounds, 800 μM [2% DMSO or ethanol] to 0.4 μM [0.001% DMSO or ethanol]). The cells were then incubated for 48 h at 37°C, which allowed biofilm formation on the pegs (Nunc no. 269789) of the Calgary biofilm device. After 24 h, fresh medium with compounds was added to the wells, and after 48 h, the biofilm was colored with crystal violet as described above ([74]). The OD570 (biofilm) and OD600 (planktonic) were measured, and the BIC50 and the IC50, respectively, were calculated.

C. albicans SC5314 = experiment: Inhibition of C. albicans biofilms, CellTiter-Blue quantification; type: cell-based, Candida albicans; settings: Candida albicans; C. albicans SC5314, 37°C, CTB method; read-out: BIC50 (μM) for C. albicans SC5314 (37°C)
Experimental: The potential of the compounds to prevent C. albicans SC5314 biofilm formation was assessed using the CellTiter-Blue (CTB) quantification method ([75]). […]. Twofold serial dilutions of the compounds (dissolved in 100% DMSO or ethanol) in 100 μl RPMI 1640 medium per well were prepared in a round-bottom polystyrene 96-well microtiter plate (TPP; Trasadingen, Switzerland) in duplicate or triplicate with a maximum concentration of 1,600 μM and a minimum concentration of 0.8 μM. One hundred microliters of the cell suspension was added to each well of the microtiter plate, resulting in a total volume of 200 μl medium per well (final concentration range of compounds, 800 μM [2% DMSO or ethanol] to 0.4 μM [0.001% DMSO or ethanol]). After 16 h of static incubation at 37°C, the biofilms were washed and quantified by the CTB method as described previously ([73]).

[2] = PA14, P. aeruginosa PA14, 25°C, read-out: BIC50
[3] = PA14, P. aeruginosa PA14, 37°C, read-out: BIC50
[4] = PA14, P. aeruginosa PA14, 37°C, read-out: IC50 (planktonic growth)
[5] = TG1, E. coli TG1, 37°C, read-out: BIC50
[6] = TG1, E. coli TG1, 37°C, read-out: IC50 (planktonic growth)
[7] = Staphylococcus aureus, ATCC6538, read-out: BIC50 (concentration needed to inhibit biofilm formation by 50%), S. aureus ATCC 6538, 37°C
[8] = Staphylococcus aureus, ATCC6538, read-out: IC50 (concentration needed to inhibit planktonic growth by 50%), S. aureus ATCC 6538, 37°C, planktonic OD600
[9] = 48 h, mixed S. aureus ATCC 6538 + S. epidermidis biofilm, read-out: BIC50
[10] = 48 h, mixed S. aureus ATCC 6538 + S. epidermidis, read-out: IC50 (planktonic growth)
[11] = PA14, P. aeruginosa PA14, 25°C, read-out: IC50 (planktonic growth)
[12] = TG1, E. coli TG1, 25°C, read-out: BIC50
[13] = TG1, E. coli TG1, 25°C, read-out: IC50 (planktonic growth)
[14] = Staphylococcus aureus, ATCC6538, S. aureus ATCC 6538, 37°C, planktonic OD600, read-out: IC50 (concentration needed to inhibit planktonic growth by 50%)
[15] = Staphylococcus aureus, ATCC6538, S. aureus ATCC 6538, 37°C, read-out: BIC50 (concentration needed to inhibit biofilm formation by 50%)
[16] = mixed S. aureus ATCC 6538 + S. epidermidis, read-out: IC50 (planktonic growth)
[17] = mixed S. aureus ATCC 6538 + S. epidermidis biofilm, read-out: BIC50

| SMILES | IC50 (P. aeruginosa PA14; [2]) [µM] | IC50 (P. aeruginosa PA14; [3]) [µM] | IC50 (P. aeruginosa PA14; [4]) [µM] | IC50 (E. coli TG1; [5]) [µM] | IC50 (E. coli TG1; [6]) [µM] | IC50 (C. albicans SC5314) [µM] | IC50 (P. aeruginosa PA14; [11]) [µM] | IC50 (E. coli TG1; [12]) [µM] | IC50 (E. coli TG1; [13]) [µM] | IC50 [1, 16] [µM] | IC50 [1, 17] [µM] | IC50 (S. aureus ATCC 6538; [7]) [µM] | IC50 (S. aureus ATCC 6538; [8]) [µM] | IC50 [1, 9] [µM] | IC50 [1, 10] [µM] | IC50 (S. aureus ATCC 6538; read-out: BIC50 (concentration needed to inhibit biofilm formation by 50%), S. aureus ATCC 6538, 37°C) [µM] | IC50 (S. aureus ATCC 6538; [14]) [µM] | IC50 (S. aureus ATCC 6538; [15]) [µM] |
| --- | --- | --- | --- | --- | --- | --- | --- | --- | --- | --- | --- | --- | --- | --- | --- | --- | --- | --- |
| CCCCCn1c(-c2ccccc2)cnc1N [Compound 1] | 2.1 | 104 | 45.2 | ~47.8 | 34.1 | 145 | – | – | – | – | – | 59.3 | 231 | 44.2 | ~356 | – | – | – |
| CCCCCCCCn1c(-c2ccc(Cl)cc2)cnc1N [Compound 2] | 4 | 118 | 10 | ~6.5 | 7.7 | 6.2 | – | – | – | – | – | 2 to 6 | 7.8 | ~7.2 | ~9.9 | 2.8 | – | – |
| CC(C)CNc1ncc(-c2ccc(Cl)cc2)[nH]1 [Compound 3] | 0.9 | > 400 | > 400 | 110 | 30 | 93.9 | – | – | – | – | – | 95.3 | ~96.1 | ~26.3 | ~140 | – | – | – |
| CCCCNc1ncc(-c2ccc(Br)cc2)[nH]1 [Compound 4] | 9.8 | > 400 | > 400 | 84.7 | 23 | 66.7 | – | – | – | – | – | ~12.3 | 60.1 | 6.8 | ~118 | – | – | – |
| Clc1ccc(-c2cnc(NC3CCCC3)[nH]2)cc1 [Compound 5] | 13.5 | > 400 | > 400 | ~45.7 | 17.1 | 64 | – | – | – | – | – | 34.4 | 62.3 | ~66.6 | ~91.7 | – | – | – |
| Brc1ccc(-c2cnc(NCCn3cc(C4CC4)nn3)[nH]2)cc1 [Compound 6] | 71.6 | > 400 | > 400 | ~192 | 183 | > 400 | > 400 | – | – | – | – | 75.2 | > 400 | 33.9 | ~392 | – | – | – |

Continued, in another order:

| IC50 (P. aeruginosa PA14; [2]) [µM] | IC50 (P. aeruginosa PA14; [3]) [µM] | IC50 (P. aeruginosa PA14; [4]) [µM] | IC50 (E. coli TG1; [5]) [µM] | IC50 (E. coli TG1; [6]) [µM] | IC50 (C. albicans SC5314) [µM] | IC50 (P. aeruginosa PA14; [11]) [µM] | IC50 (E. coli TG1; [12]) [µM] | IC50 (E. coli TG1; [13]) [µM] | IC50 [1, 16] [µM] | IC50 [1, 17] [µM] | SMILES | IC50 (S. aureus ATCC 6538; [7]) [µM] | IC50 (S. aureus ATCC 6538; [8]) [µM] | IC50 [1, 9] [µM] | IC50 [1, 10] [µM] | IC50 (S. aureus ATCC 6538; read-out: BIC50 (concentration needed to inhibit biofilm formation by 50%), S. aureus ATCC 6538, 37°C) [µM] | IC50 (S. aureus ATCC 6538; [14]) [µM] | IC50 (S. aureus ATCC 6538; [15]) [µM] |
| --- | --- | --- | --- | --- | --- | --- | --- | --- | --- | --- | --- | --- | --- | --- | --- | --- | --- | --- |
| > 400 | > 400 | 66 | 41.2 | 10.2 | 9.3 | 75.3 | ~47.2 | 51.2 | ~26.1 | – | CCCCCCCCn1c(-c2ccccc2)cnc1NCC(C)C [Compound 8a] | – | – | – | – | – | 17.9 | ~22.9 |
| > 400 | > 400 | 115 | 330 | 6.1 | 11 | 222 | 29.5 | 91.9 | ~22.2 | 1.1 | CCCCCCCCn1c(-c2ccc(Cl)cc2)cnc1NCC(C)C [Compound 8b] | – | – | – | – | – | 9.3 | 5.8 |
| > 400 | > 400 | 345 | > 400 | 74.1 | > 100 | > 400 | > 400 | 150 | > 400 | 5 | CCCCCCCCn1c(-c2ccc(Br)cc2)cnc1NCC(C)C [Compound 8c] | – | – | – | – | – | 173 | 41 |
| > 400 | > 400 | > 400 | > 400 | 46.3 | > 100 | > 400 | > 400 | 255 | > 400 | > 400 | CCCCCCCCn1c(-c2ccc(Cl)c(Cl)c2)cnc1NCC(C)C [Compound 8d] | – | – | – | – | – | > 400 | 116 |
| > 400 | > 400 | 167 | ~27.6 | 10.5 | ~11.9 | 62.9 | ~26.7 | 189 | ~23.6 | ~3 | CCCCCCCCn1c(-c2ccccc2)cnc1NC1CCCC1 [Compound 8e] | – | – | – | – | – | 46.5 | 1 |
| > 400 | > 400 | > 400 | 306 | 370 | 8.9 | > 400 | 29.1 | > 400 | ~22.5 | 2 | CCCCCCCCn1c(-c2ccc(Cl)cc2)cnc1NC1CCCC1 [Compound 8f] | – | – | – | – | – | ~24.1 | 6.7 |
| > 400 | > 400 | > 400 | > 400 | 237 | 21.1 | > 400 | 43 | > 400 | 15.5 | ~5.6 | CCCCCCCCn1c(-c2ccc(Br)cc2)cnc1NC1CCCC1 [Compound 8g] | – | – | – | – | – | 19.1 | 8.5 |
